# PMC8359193, “Summary of reference chemicals evaluated by the fish short‐term reproduction assay, OECD TG229, using Japanese Medaka, Oryzias latipes” (Journal of Applied Toxicology, 2021)
# Test system: Japanese medaka (Oryzias latipes)
# Assay: Fish short-term reproduction assay (FSTRA, OECD TG229), 21-day flow-through exposure
# Conditions: for Fertility rate (%) / Mortality (%) Female / Mortality (%) Male / Number of fertilized eggs / Number of total eggs / SSC Female / SSC Male / VTG (ng/mg of liver) Female / VTG (ng/mg of liver) Male: 21 days; for GSI Female / GSI Male / HSI Female / HSI Male / Length Female / Length Male / Weight Female / Weight Male: at completion of exposure
# How it was run: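 Run to OECD TG229: mature NIES-R medaka pairs (3♂/3♀ per vessel, 4 vessels per treatment plus dilution water control) were dosed by continuous flow-through for 21 days. Test concentrations were spaced 2- to 5-fold. Daily spawned eggs were counted under the microscope for fertilized versus unfertilized.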
compound,measurement,setting,value
"C[C@]12C=CC3=C4CCC(=O)C=C4CC[C@H]3[C@@H]1CC[C@@H]2O [TRB, 17β‐Trenbolone]",LOEC on female SSC (papillary process formation on anal fin),"21-day exposure, measured conc.",26.8 ng/L
same,Fertility rate (%),measured conc. 8.03 ng/L,95%
same,Mortality (%) Female,measured conc. 8.03 ng/L,0%
same,Mortality (%) Male,measured conc. 8.03 ng/L,0%
same,Number of fertilized eggs,measured conc. 8.03 ng/L,26
same,Number of total eggs,measured conc. 8.03 ng/L,27 ± 3.5 /female/day
same,SSC Female,measured conc. 8.03 ng/L,0 ± 0
same,SSC Male,measured conc. 8.03 ng/L,86 ± 3.9
same,VTG (ng/mg of liver) Female,measured conc. 8.03 ng/L,736 ± 147 ng/mg of liver
same,VTG (ng/mg of liver) Male,measured conc. 8.03 ng/L,3.7 ± 3.2 ng/mg of liver
same,GSI Female,measured conc. 8.03 ng/L,9.7%
same,GSI Male,measured conc. 8.03 ng/L,1.04%
same,HSI Female,measured conc. 8.03 ng/L,5.4%
same,HSI Male,measured conc. 8.03 ng/L,1.8%
same,Length Female,measured conc. 8.03 ng/L,36.4 mm
same,Length Male,measured conc. 8.03 ng/L,36.7 mm
same,Weight Female,measured conc. 8.03 ng/L,573 mg
same,Weight Male,measured conc. 8.03 ng/L,502 mg
same,Fertility rate (%),measured conc. 26.8 ng/L,93%
same,Mortality (%) Female,measured conc. 26.8 ng/L,0%
same,Mortality (%) Male,measured conc. 26.8 ng/L,0%
same,Number of fertilized eggs,measured conc. 26.8 ng/L,22
same,Number of total eggs,measured conc. 26.8 ng/L,24 ± 2.6 /female/day
same,SSC Female,measured conc. 26.8 ng/L,6.6 ± 6.1
same,SSC Male,measured conc. 26.8 ng/L,101 ± 17
same,VTG (ng/mg of liver) Female,measured conc. 26.8 ng/L,696 ± 211 ng/mg of liver
same,VTG (ng/mg of liver) Male,measured conc. 26.8 ng/L,6.5 ± 3.8 ng/mg of liver
same,GSI Female,measured conc. 26.8 ng/L,11.3%
same,GSI Male,measured conc. 26.8 ng/L,1.06%
same,HSI Female,measured conc. 26.8 ng/L,5.5%
same,HSI Male,measured conc. 26.8 ng/L,2.1%
same,Length Female,measured conc. 26.8 ng/L,35.6 mm
same,Length Male,measured conc. 26.8 ng/L,37.3 mm
same,Weight Female,measured conc. 26.8 ng/L,515 mg
same,Weight Male,measured conc. 26.8 ng/L,500 mg
same,Fertility rate (%),measured conc. 84.6 ng/L,90%
same,Mortality (%) Female,measured conc. 84.6 ng/L,0%
same,Mortality (%) Male,measured conc. 84.6 ng/L,0%
same,Number of fertilized eggs,measured conc. 84.6 ng/L,9.1
same,Number of total eggs,measured conc. 84.6 ng/L,10 ± 2.4 /female/day
same,SSC Female,measured conc. 84.6 ng/L,48 ± 6.7
same,SSC Male,measured conc. 84.6 ng/L,104 ± 8.1
same,VTG (ng/mg of liver) Female,measured conc. 84.6 ng/L,658 ± 102 ng/mg of liver
same,VTG (ng/mg of liver) Male,measured conc. 84.6 ng/L,4.9 ± 4.3 ng/mg of liver
same,GSI Female,measured conc. 84.6 ng/L,16.1%
same,GSI Male,measured conc. 84.6 ng/L,1.11%
same,HSI Female,measured conc. 84.6 ng/L,3.7%
same,HSI Male,measured conc. 84.6 ng/L,2.1%
same,Length Female,measured conc. 84.6 ng/L,36.1 mm
same,Length Male,measured conc. 84.6 ng/L,37.7 mm
same,Weight Female,measured conc. 84.6 ng/L,625 mg
same,Weight Male,measured conc. 84.6 ng/L,524 mg
same,Fertility rate (%),measured conc. 291 ng/L,74%
same,Mortality (%) Female,measured conc. 291 ng/L,0%
same,Mortality (%) Male,measured conc. 291 ng/L,0%
same,Number of fertilized eggs,measured conc. 291 ng/L,0.9
same,Number of total eggs,measured conc. 291 ng/L,1.2 ± 0.5 /female/day
same,SSC Female,measured conc. 291 ng/L,76 ± 3.9
same,SSC Male,measured conc. 291 ng/L,103 ± 8.4
same,VTG (ng/mg of liver) Female,measured conc. 291 ng/L,641 ± 200 ng/mg of liver
same,VTG (ng/mg of liver) Male,measured conc. 291 ng/L,4.5 ± 2.1 ng/mg of liver
same,GSI Female,measured conc. 291 ng/L,18.8%
same,GSI Male,measured conc. 291 ng/L,1.10%
same,HSI Female,measured conc. 291 ng/L,3.4%
same,HSI Male,measured conc. 291 ng/L,1.8%
same,Length Female,measured conc. 291 ng/L,37.3 mm
same,Length Male,measured conc. 291 ng/L,37.0 mm
same,Weight Female,measured conc. 291 ng/L,691 mg
same,Weight Male,measured conc. 291 ng/L,504 mg
same,"effect on fecundity (number of total eggs), in words","within the test concentrations, 21-day exposure",significantly reduced
